The record followed here is patent publication US8664257B2, “Oxygen-substituted 3-heteroaroylamino-propionic acid derivatives and their use as pharmaceuticals” (Sanofi, priority 2010, dated 2014).

One assay has as its target T1, Recombinant human cathepsin A (Homo sapiens, UniProt P10619).
T1 construct: Recombinant human cathepsin A (residues 29-480, with a C-terminal 10-His tag); 10-His (C); purchased R&D Systems 1049-SE
T1 sequence (P10619 29-312 limits assumed): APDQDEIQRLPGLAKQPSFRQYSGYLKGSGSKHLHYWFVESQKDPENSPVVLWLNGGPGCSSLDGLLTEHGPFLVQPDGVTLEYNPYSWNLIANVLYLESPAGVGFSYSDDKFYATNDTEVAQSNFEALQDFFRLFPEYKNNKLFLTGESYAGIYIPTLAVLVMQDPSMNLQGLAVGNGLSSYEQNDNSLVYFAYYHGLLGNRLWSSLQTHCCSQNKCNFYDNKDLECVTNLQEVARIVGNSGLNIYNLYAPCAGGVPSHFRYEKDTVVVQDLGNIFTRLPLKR
T1 sequence (P10619 327-480 limits assumed): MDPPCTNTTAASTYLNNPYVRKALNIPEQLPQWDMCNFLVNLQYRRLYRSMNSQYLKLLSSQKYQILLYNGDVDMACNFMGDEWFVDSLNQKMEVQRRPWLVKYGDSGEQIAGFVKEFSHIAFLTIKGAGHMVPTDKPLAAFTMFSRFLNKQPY
Put plainly: Cathepsin A inhibitory activity. The conditions noted are these: pharmacological test "Cathepsin A inhibitory activity"; IC50 given as class A/B/C; read-out: Activity (2): Cathepsin A inhibitory activity, IC50 class. It is filed as biochemical. In a few lines: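 Read-out was microfluidic separation of cleaved vs. uncleaved Bodipy FL-bradykinin (2 μM), giving turnover, % inhibition and IC50. Compound and 833 ng/ml enzyme met for 15 min RT in pH 5.5 MES/DTT before substrate (15 min RT). The 29-480 His-tagged human enzyme was first activated by cathepsin L, then E-64 (10 μM).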
Broadly, the IC50 is the concentration at which inhibition is half-maximal. In the case of `O=C(O)CC(NC(=O)c1cc(O)n(-c2ccc(F)cc2F)n1)c1ccc(OC(F)(F)F)cc1` (centres unmarked) [Example 187], the concentration for half-maximal inhibition (IC50) was 100 to 1000 nM.
Still for that read-out and setting: with `O=C(O)CC(NC(=O)c1cc(O)n(-c2ccccc2Cl)n1)c1ccccc1F` (centres unmarked) [Example 208] the figure was 100 to 1000 nM.
Same read-out and setting: as for `O=C(O)C[C@H](NC(=O)c1cc(O)n(-c2ccccc2Cl)n1)c1cccc(C(F)(F)F)c1` [Example 218], the figure is 100 to 1000 nM.
`O=C(O)CC(NC(=O)c1cc(O)n(-c2ccccc2F)n1)c1cccc2c1OCO2` (centres unmarked) [Example 228]: the IC50 is 100 to 1000 nM.
On the same count and under the same terms, with `O=C(O)C[C@H](NC(=O)c1cc(O)n(-c2ccc(F)cc2F)n1)c1cccc(Cl)c1` [Example 184] the figure was 100 to 1000 nM.
Same read-out and setting: as for `O=C(O)C[C@H](NC(=O)c1cc(O)n(-c2ccc(F)cc2F)n1)c1ccc(F)cc1` [Example 180], the figure is 100 to 1000 nM; as for `O=C(O)C[C@H](NC(=O)c1cc(O)n(-c2ccc(F)cc2F)n1)c1ccc(Cl)cc1` [Example 200], 100 to 1000 nM.
On the same count and under the same terms, as for `COc1ccc(C(CC(=O)O)NC(=O)c2cc(O)n(-c3ccccc3)n2)c(Cl)c1` (centres unmarked) [Example 162], the figure is 100 to 1000 nM; as for `O=C(O)CC(NC(=O)c1cc(O)n(-c2ccccc2F)n1)c1ccc(-c2cccc(F)c2)cc1` (centres unmarked) [Example 242], 100 to 1000 nM.

The same assay, now with this note: read-out: Activity (2): Cathepsin A inhibitory activity (IC50 class).
For `Cc1ccccc1[C@H](CC(=O)O)NC(=O)c1cc(OCC(C)(C)C)n(-c2ccccc2F)n1` [Example 632], the IC50 was below 100 nM.
On the same count and under the same terms, as for `CS(=O)(=O)c1ccc(C(CC(=O)O)NC(=O)c2cc(O)n(-c3ccccc3)n2)cc1` (centres unmarked) [Example 600], the figure is 1000 to 30000 nM.
Still for that read-out and setting: as for `COc1cc(C(=O)N[C@@H](CC(=O)O)c2cccc(Cl)c2Cl)nn1-c1ccccc1` [Example 596], the figure is below 100 nM; as for `CCOc1cc(C(=O)N[C@@H](CC(=O)O)c2ccccc2Cl)nn1-c1ccccc1Cl` [Example 737], below 100 nM.
For the compound `CCOc1cc(C(=O)N[C@@H](CC(=O)O)c2ccccc2Cl)nn1-c1ccccc1F` [Example 717], the IC50 is below 100 nM.
On the same count and under the same terms, with `CC(C)(C)[C@@H](O)COc1cc(C(=O)N[C@@H](CC(=O)O)c2ccc(Cl)cc2Cl)nn1-c1ccccc1F` [Example 753, (S)-3-(2,4-Dichloro-phenyl)-3-{[1-(2-fluoro-phenyl)-5-((R)-2-hydroxy-3,3-dimethyl-butoxy)-1H-pyrazole-3-carbonyl]-amino}-propionic acid] the figure was below 100 nM; with `COc1cc(C(=O)NC(CC(=O)O)c2ccc(C)cc2C)nn1-c1ccccc1F` (centres unmarked) [Example 666], below 100 nM; with `Cc1ccccc1[C@H](CC(=O)O)NC(=O)c1cc(O)n(-c2cccc(S(N)(=O)=O)c2)n1` [Example 601], 100 to 1000 nM.
For the compound `COc1ccc(C(CC(=O)O)NC(=O)c2cc(O)n(-c3ccccc3Cl)n2)c(C(F)(F)F)c1` (centres unmarked) [Example 567, 3-{[1-(2-Chloro-phenyl)-5-hydroxy-1H-pyrazole-3-carbonyl]-amino}-3-(4-methoxy-2-trifluoromethyl-phenyl)-propionic acid], the IC50 lay within 1000 to 30000 nM.
With `CCOc1cc(C(=O)N[C@@H](CC(=O)O)c2cccc(OC)c2)nn1-c1ccccc1Cl` [Example 731], the half-inhibitory concentration (IC50) was in the range of 100 to 1000 nM.
As for `Cc1ccccc1[C@H](CC(=O)O)NC(=O)c1cc(OCC2CCC2)n(-c2ccccc2F)n1` [Example 649], the half-inhibitory concentration (IC50) was below 100 nM.
As to `Cc1ccccc1[C@H](CC(=O)O)NC(=O)c1cc(OCC2CCCCC2)n(-c2ccccc2F)n1` [Example 638], the 50% inhibitory concentration (IC50) is below 100 nM.
Regarding `CC(C)(C)[C@@](C)(O)COc1cc(C(=O)N[C@@H](CC(=O)O)c2cccc(C#N)c2)nn1-c1ccccc1F` [Example 778, (S)-3-(3-Cyano-phenyl)-3-{[1-(2-fluoro-phenyl)-5-((R)-2-hydroxy-2,3,3-trimethyl-butoxy)-1H-pyrazole-3-carbonyl]-amino}-propionic acid], the 50% inhibitory concentration (IC50) was below 100 nM.
For the compound `CCOc1cc(C(=O)N[C@@H](CC(=O)O)c2cccc(C)c2)nn1-c1ccccc1Cl` [Example 732], the IC50 is below 100 nM.

The same assay, now with this note: read-out: Activity (2): Cathepsin A inhibitory activity, IC50 class.
For the compound `Cc1ccc(C)c(-n2nc(C(=O)NC(CC(=O)O)c3ccc(F)cc3)cc2O)c1` (centres unmarked) [Example 1], the IC50 was 1000 to 30000 nM.
`O=C(O)CC(NC(=O)c1cc(O)n(-c2ccc(F)cc2)n1)c1cccc(Cl)c1Cl` (centres unmarked) [Example 352]: the IC50 lay within 100 to 1000 nM.
Still for that read-out and setting: with `COc1ccc(C(CC(=O)O)NC(=O)c2cc(O)n(-c3ccc(F)cc3)n2)c(C)c1` (centres unmarked) [Example 337] the figure was 100 to 1000 nM; with `COc1cccc([C@H](CC(=O)O)NC(=O)c2cc(OCC(C)(O)C(C)C)n(-c3ccccc3F)n2)c1` (stereo partly drawn) [Example 802, (S)-3-{[1-(2-Fluoro-phenyl)-5-(2-hydroxy-2,3-dimethyl-butoxy)-1H-pyrazole-3-carbonyl]-amino}-3-(3-methoxy-phenyl)-propionic acid], below 100 nM; with `O=C(O)C[C@H](NC(=O)c1cc(O)n(-c2ccccc2F)n1)c1ccc(Cl)cc1Cl` [Example 117], 100 to 1000 nM.
Turning to `O=C(O)C[C@H](NC(=O)c1cc(O)n(-c2ccc(Cl)cc2)n1)c1ccc(Cl)cc1` [Example 296], the half-inhibitory concentration (IC50) lay in the range of 100 to 1000 nM.
Regarding `O=C(O)CC(NC(=O)c1cc(O)n(-c2ccc(F)cc2)n1)c1ccc(-c2ccc(F)cc2)cc1` (centres unmarked) [Example 371], the half-inhibitory concentration (IC50) was 100 to 1000 nM.
As for `Cc1ccccc1[C@H](CC(=O)O)NC(=O)c1cc(O)n(-c2cccc(F)c2)n1` [Example 74], the 50% inhibitory concentration (IC50) was below 100 nM.
On the same count and under the same terms, as for `Cc1ccccc1C(CC(=O)O)NC(=O)c1cc(O)n(-c2ccc(Cl)cc2)n1` (centres unmarked) [Example 79], the figure is 100 to 1000 nM; as for `N#Cc1cccc([C@H](CC(=O)O)NC(=O)c2cc(O)n(-c3ccc(Cl)cc3)n2)c1` [Example 271], 1000 to 30000 nM.
Still for that read-out and setting: as for `COc1ccc(C(CC(=O)O)NC(=O)c2cc(O)n(-c3ccccc3)n2)c(F)c1` (centres unmarked) [Example 92], the figure is 100 to 1000 nM; as for `Cc1ccccc1[C@H](CC(=O)O)NC(=O)c1cc(O)n(-c2ccc(Cl)cn2)n1` [Example 130], 1000 to 30000 nM; as for `Cc1ccccc1[C@H](CC(=O)O)NC(=O)c1cc(O)n(-c2ccnc(Cl)c2)n1` [Example 131], 100 to 1000 nM.
With `O=C(O)CC(NC(=O)c1cc(O)n(-c2ccc(F)cc2F)n1)c1cccc(Cl)c1` (centres unmarked) [Example 380], the concentration for half-maximal inhibition (IC50) is 100 to 1000 nM.
The same measure, in the same setting: with `O=C(O)C[C@H](NC(=O)c1cc(O)n(-c2ccccc2F)n1)c1ccccc1F` [Example 118] the figure was 100 to 1000 nM.

Still in this assay, the particulars now being: recombinant human cathepsin A 833 ng/ml, Bodipy FL-labeled bradykinin 2 μM, pH 5.5; read-out: CATH-A IC50.
As to `O=C(O)CC(NC(=O)c1cc(O)n(-c2ccccc2)n1)c1cc(Cl)ccc1Cl` (centres unmarked) [Example 444, 3-(2,5-Dichloro-phenyl)-3-[(5-hydroxy-1-phenyl-1H-pyrazole-3-carbonyl)-amino]-propionic acid], the IC50 turned out to be 83.1 nM.
Same read-out and setting: as for `CC(C)(C)[C@@H](O)COc1cc(C(=O)N[C@@H](CC(=O)O)c2ccc(Cl)cc2Cl)nn1-c1ccccc1F` [Example 753, (S)-3-(2,4-Dichloro-phenyl)-3-{[1-(2-fluoro-phenyl)-5-((R)-2-hydroxy-3,3-dimethyl-butoxy)-1H-pyrazole-3-carbonyl]-amino}-propionic acid], the figure is 345 nM; as for `COc1ccc(C(CC(=O)O)NC(=O)c2cc(O)n(-c3ccccc3Cl)n2)c(C(F)(F)F)c1` (centres unmarked) [Example 567, 3-{[1-(2-Chloro-phenyl)-5-hydroxy-1H-pyrazole-3-carbonyl]-amino}-3-(4-methoxy-2-trifluoromethyl-phenyl)-propionic acid], 1060 nM.
Still for that read-out and setting: with `O=C(O)CC(NC(=O)c1cc(O)n(-c2ccc(F)cc2F)n1)c1cc(F)ccc1F` (centres unmarked) [Example 451, 3-(2,5-Difluoro-phenyl)-3-{[1-(2,4-difluoro-phenyl)-5-hydroxy-1H-pyrazole-3-carbonyl]-amino}-propionic acid] the figure was 233 nM.

Staying with this assay, now noted: recombinant human cathepsin A; read-out: Activity (2): Cathepsin A inhibitory activity, IC50 class.
As to `O=C(O)CC(NC(=O)c1cc(O)n(-c2ccccc2)n1)c1cc(Cl)ccc1Cl` (centres unmarked) [Example 444, 3-(2,5-Dichloro-phenyl)-3-[(5-hydroxy-1-phenyl-1H-pyrazole-3-carbonyl)-amino]-propionic acid], the IC50 is below 100 nM.
As to `COc1ccc([C@H](CC(=O)O)NC(=O)c2cc(O)n(-c3ccc(F)cc3)n2)cc1` [Example 435], the IC50 lay in the range of 100 to 1000 nM.
Still for that read-out and setting: as for `O=C(O)CC(NC(=O)c1cc(O)n(-c2ccc(F)cc2F)n1)c1cc(F)ccc1F` (centres unmarked) [Example 451, 3-(2,5-Difluoro-phenyl)-3-{[1-(2,4-difluoro-phenyl)-5-hydroxy-1H-pyrazole-3-carbonyl]-amino}-propionic acid], the figure is 100 to 1000 nM; as for `O=C(O)CC(NC(=O)c1cc(O)n(-c2cccc(F)c2)n1)c1cc(F)ccc1Cl` (centres unmarked) [Example 483], 100 to 1000 nM; as for `Cc1ccc(C(CC(=O)O)NC(=O)c2cc(O)n(-c3cccc(Cl)c3)n2)c(C)c1` (centres unmarked) [Example 419], 100 to 1000 nM.
